What was measured:
[1] = tested on: ZFHD1-FKBPx3 and FRB-p65 fusion proteins, hGH reporter linked to ZFHD1 binding sites; assay: Rapamycin-dependent hGH expression in transfected HT1080 cell culture; assay type: cell-based; settings: HT1080 cells with three constructs
Procedure: Using the approach described in Example 6, constructs were prepared encoding the ZFHD1-FKBPx3 fusion protein, a second fusion protein containing the FKBP:rapaymcin binding (“FRB”) region of FRAP linked to the p65 activation domain, and a reporter cassette containing a gene encoding human growth hormone linked to multiple ZFHD1 binding sites. The natural product, rapamycin, forms a ternary complex with FKBP12 and FRAP. Similarly, rapamycin is capable of binding to one or more of the FKBP domains and FRAP FRB domains of the fusion proteins.

[2] = tested on: ZFHD1-FKBPx3 and FRB-p65 fusion proteins, hGH target gene in implanted cells; assay: Rapamycin-dependent serum hGH in nu/nu mice implanted with transfected HT1080 cells; assay type: in vivo; settings: rapamycin i.v. 10-10,000 μg/kg, serum 17 hours after administration
Procedure: Human cells (2×10^6) transfected with plasmids encoding transcription factors ZFHD1-FKBPx3 and FRB-p65 and a target gene directing the expression of human growth hormone (hGH) were injected into the skeletal muscles of nu/nu mice. Mice were treated with the indicated concentration of rapamycin by tail vein injection. After 17 hours, serum hGH levels were determined by ELISA. Each point represents X±SEM (n=at least 5 per point). Control animals received either engineered cells without drug or drug (10^3 or 10^4 μg/kg) without engineered cells.
2×10^6 cells from the transfected HT1080 culture were administered to nu/nu mice by intramuscular injection. Following cell implantation, rapamycin was administered i.v. over a range of doses (from 10-10,000 μg/kg). Serum samples were collected from the mice 17 hours after rapamycin administration. Control groups consisted of mice that received no cells but 1.0 mg/kg rapamycin (i.v.) as well as mice that received the cells but no rapamycin.
Neither control group produced measurable hGH. The limit of detection of the hGH assay is 0.0125 ng/ml.

[3] = hGH clearance after bolus administration; assay type: in vivo; settings: i.p. or i.v.
Source text: Therefore, the observed hGH secretion in this example appears to be a sustained phenomenon.

[4] = tested on: ZFHD1-FKBPx3 with FKBPx3-VP16 or FKBPx3-p65, pZHWTx8SVSEAP reporter; assay: FK1012-dependent SEAP transcriptional activation in 293 cells; assay type: cell-based; settings: 24 hour incubation
Procedure: 293 cells were grown in D-MEM (Gibco BRL) supplemented with 10% Bovine Calf Serum. Cells in 35 mm dishes (2.5×10^5 cells/dish) were transiently transfected with use of calcium phosphate precipitation (Ausubel et. al., 1994). Each dish received 375 ng pZHWTx8SVSEAP; 12 ng pCGNNZFHD1-FKBPx3 and 25 ng pCGNNFKBPx3-VP16 or pCGNNFKBPx3-p65. Following transfection, 2 ml fresh media was added and supplemented with FK1012 to the desired concentration. After a 24 hour incubation […] aliquot of media was removed and assayed for SEAP activity as described (Spencer et. al., 1993).

rapamycin
rapamycin-dependent expression of the hGH gene in cell culture [1]: rapamycin-dependent expression of the hGH gene
expression of hGH (circulating hGH) [2]: Dose-responsive expression of hGH

hGH: human growth hormone, reporter gene product; bolus clearance stated
hGH clearance half-life [3]: less than 2 minutes
time to undetectable hGH levels [3]: ≤ 30 min

CO[C@H]1C[C@@H](C)C/C(C)=C/[C@@H](CCOC(=O)NCc2ccc(CNC(=O)OCC[C@@H]3/C=C(\C)C[C@H](C)C[C@H](OC)C4O[C@@](O)(C(=O)C(=O)N5CCCC[C@H]5C(=O)OC(/C(C)=C/[C@@H]5CC[C@@H](O)[C@H](OC)C5)[C@H](C)[C@@H](O)CC3=O)[C@H](C)C[C@H]4OC)cc2)C(=O)C[C@H](O)[C@@H](C)C(/C(C)=C/[C@@H]2CC[C@@H](O)[C@H](OC)C2)OC(=O)[C@@H]2CCCCN2C(=O)C(=O)[C@]2(O)OC1[C@H](OC)C[C@H]2C (some centres unmarked) [FK1012]
FK1012 concentration at peak activation [4]: 100 nM
